{"source": "patent US20070004658A1", "about": "“Method and means for treatment of osteoarthritis” (priority 2004, published 2007)", "test_system": "Normal human articular chondrocytes (NHAC's)", "assay": "Aggrecan induction, Alcian blue stain assay", "type": "cell-based", "conditions": "primary human chondrocytes 12 days post infection, FIG. 5", "description": "A second assay to screen for chondrocyte anabolic factors is developed by monitoring the levels of aggrecan, another major constituent of cartilage. In this assay, glycosaminoglycans on aggrecan are stained by Alcian blue. NHACs are seeded in 384 well plates and 1 day after plating infected with individual Ad-siRNA from the SilenceSelect™ collection. […] Using Ad-BMP2 as a positive control, we confirm in a series of experiments that several parameters optimized for the ColII cELISA assay are also applicable for the Alcian blue stain assay for aggrecan. These parameters include cell seeding density, MOIs of control viruses, duration of infection, and the day of readout.\nNHAC's are seeded on day 0 at 1500 cells/well of a 384 well black-plate with clear bottom in 60 μl of DMEM/F12, containing 10% FBS-HI and Pen/Strep and infected the next day with 2.5 μl of Ad-BMP2 or Ad-eGFP; at an MOI of 2000. After 7 days, 10 μl of a 50 μg/ml 2-Phospho-L-ascorbic acid in assay culture medium is added to each well. […] After replacing 50% ethanol/3% acetic acid with 70% ethanol/3% acetic acid, each individual well is photographed with a SONY CCD camera, images are analyzed using a Galapagos Alcian blue quantification algorithm based on the separation of the blue signal through a color threshold procedure after a noise reduction filter. […]", "data": [{"sequence": "GGTGTATGGGCTCATGTAC (adenoviral siRNA, target sequence only, chemistry not fully specified) [Ad-siRNA targeting FZD1]", "values": [{"measurement": "aggrecan levels (Alcian blue staining)", "value": "does not seem to induce Alcian blue staining"}]}]}
